US8178690B2, “Compounds and methods for inhibiting the interaction of BCL proteins with binding partners” (Infinity Pharmaceuticals, Inc., priority 2006, dated 2012)

Experiments:
Bcl-xL = Bcl-xL (Homo sapiens, UniProt Q07817); experiment: Bcl-xL binding affinity analysis (fluorescence polarization binding assay); details: read-out: BcI-XI (Ki, Bcl-xL binding affinity)
Excerpt: (§1) Bcl-2 and Bcl-xL binding may be determined using a variety of known methods. One such assay is a sensitive and quantitative in vitro binding assay using fluorescence polarization (FP) described by Wang, J.-L.; Zhang, Z-J.; Choksi, S.; Sjam. S.; Lu, Z.; Croce, C. M.; Alnemri, E. S.; Komgold, R.; Huang, Z. Cell permeable Bcl-2 binding peptides: a chemical approach to apoptosis induction in tumor cells. Cancer Res. 2000, 60, 1498-1502).
(§2) Bcl-2 and Bcl-xL binding affinity analysis data is presented below for various compounds of the invention.

Bcl-2 = Bcl-2 (Homo sapiens, UniProt P10415); experiment: Bcl-2 binding affinity analysis (fluorescence polarization binding assay); details: read-out: BcI2 (Ki, Bcl-2 binding affinity)
Chain of Bcl-2 (P10415 whole entry): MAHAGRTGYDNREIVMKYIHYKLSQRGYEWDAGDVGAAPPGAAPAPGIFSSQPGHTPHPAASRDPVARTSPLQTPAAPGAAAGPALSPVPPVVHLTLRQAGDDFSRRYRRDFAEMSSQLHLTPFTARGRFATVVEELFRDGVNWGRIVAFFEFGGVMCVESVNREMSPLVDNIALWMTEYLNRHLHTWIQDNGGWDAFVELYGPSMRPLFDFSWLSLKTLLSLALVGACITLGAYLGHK
Excerpt: as §1, §2

Chain of Bcl-xL (Q07817 whole entry): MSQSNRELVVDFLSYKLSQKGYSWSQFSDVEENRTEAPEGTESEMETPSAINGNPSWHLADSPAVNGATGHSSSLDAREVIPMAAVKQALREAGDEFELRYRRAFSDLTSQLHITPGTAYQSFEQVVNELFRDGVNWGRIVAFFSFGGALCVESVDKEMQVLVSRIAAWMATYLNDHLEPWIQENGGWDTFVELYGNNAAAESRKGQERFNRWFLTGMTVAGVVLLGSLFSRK

Ki (Bcl-xL) [µM] | Ki (Bcl-2) [µM] | Compound
< 1 | < 0.001 | COc1c(CN2O[C@@H](CN)[C@@H]([C@H](C)O)[C@H]2C(=O)N[C@H]2C[C@H]3C[C@@H]([C@@H]2C)C3(C)C)cccc1-c1cc(C(=O)N[C@@H](CC(C)C)CN(C)C)cc(N(C)C)c1 [Compound 72]
< 1 | < 0.001 | COc1c(CN2O[C@@H](CNC(C)=O)[C@@H]([C@H](C)O)[C@H]2C(=O)N[C@H]2C[C@H]3C[C@@H]([C@@H]2C)C3(C)C)cccc1-c1cc(C(=O)N[C@H](CN(C)C)CC(C)(C)C)cc(N(C)C)c1 [Compound 73]
5 to 10 | > 0.009 | COc1c(CN2O[C@@H](CNC(=O)C(F)(F)F)[C@@H]([C@H](C)O)[C@H]2C(=O)N[C@H]2C[C@H]3C[C@@H]([C@@H]2C)C3(C)C)cccc1-c1cc(C(=O)NCCc2ccccc2)cc(N(C)C)c1 [Compound 74]
1 to 5 | 0.005 to 0.009 | CNC(=O)c1cc(-c2cccc(CN3O[C@@H](CNC(=O)CCC(=O)O)[C@@H]([C@H](C)O)[C@H]3C(=O)N[C@H]3C[C@H]4C[C@@H]([C@@H]3C)C4(C)C)c2OC)cc(N(C)C)c1 [Compound 75]
> 10 | 0.005 to 0.009 | COc1c(CN2O[C@@H](CNC(C)=O)[C@@H]([C@H](C)O)[C@H]2C(=O)N[C@H]2C[C@H]3C[C@@H]([C@@H]2C)C3(C)C)cccc1-c1cc(C(=O)NCCc2ccccc2)cc(N(C)C)c1 [Compound 76]
1 to 5 | 0.005 to 0.009 | CNC(=O)c1cc(-c2cccc(CN3O[C@@H](CNC(C)=O)[C@@H]([C@H](C)O)[C@H]3C(=O)N[C@H]3C[C@H]4C[C@@H]([C@@H]3C)C4(C)C)c2OC)cc(N(C)C)c1 [Compound 77]
5 to 10 | > 0.009 | CNC(=O)c1cc(-c2cccc(CN3O[C@@H](CNC(=O)CCC(=O)OC)[C@@H]([C@H](C)O)[C@H]3C(=O)N[C@H]3C[C@H]4C[C@@H]([C@@H]3C)C4(C)C)c2OC)cc(N(C)C)c1 [Compound 78]
5 to 10 | > 0.009 | CNC(=O)c1cc(-c2cccc(CN3O[C@@H](CNC(=O)Nc4ccccc4)[C@@H]([C@H](C)O)[C@H]3C(=O)N[C@H]3C[C@H]4C[C@@H]([C@@H]3C)C4(C)C)c2OC)cc(N(C)C)c1 [Compound 79]
5 to 10 | 0.005 to 0.009 | COc1c(CN2O[C@@H](CN(C)C)[C@@H]([C@H](C)O)[C@H]2C(=O)N[C@H]2C[C@H]3C[C@@H]([C@@H]2C)C3(C)C)cccc1-c1cc(C(=O)NCCc2ccccc2)cc(N(C)C)c1 [Compound 80]
> 10 | > 0.009 | CNC(=O)c1cc(-c2cccc(CN3O[C@@H](CNCc4ccc(C(=O)O)cc4)[C@@H]([C@H](C)O)[C@H]3C(=O)N[C@H]3C[C@H]4C[C@@H]([C@@H]3C)C4(C)C)c2OC)cc(N(C)C)c1 [Compound 81]
> 10 | > 0.009 | CNC(=O)c1cc(-c2cccc(CN3O[C@@H](CNCc4ccncc4)[C@@H]([C@H](C)O)[C@H]3C(=O)N[C@H]3C[C@H]4C[C@@H]([C@@H]3C)C4(C)C)c2OC)cc(N(C)C)c1 [Compound 82]
> 10 | > 0.009 | CNC(=O)c1cc(-c2cccc(CN3O[C@@H](CNCc4ccccn4)[C@@H]([C@H](C)O)[C@H]3C(=O)N[C@H]3C[C@H]4C[C@@H]([C@@H]3C)C4(C)C)c2OC)cc(N(C)C)c1 [Compound 83]
> 10 | > 0.009 | CNC(=O)c1cc(-c2cccc(CN3O[C@@H](CNCc4cccc(C(=O)O)c4)[C@@H]([C@H](C)O)[C@H]3C(=O)N[C@H]3C[C@H]4C[C@@H]([C@@H]3C)C4(C)C)c2OC)cc(N(C)C)c1 [Compound 84]
5 to 10 | > 0.009 | CNC(=O)c1cc(-c2cccc(CN3O[C@@H](CNCc4ccccc4)[C@@H]([C@H](C)O)[C@H]3C(=O)N[C@H]3C[C@H]4C[C@@H]([C@@H]3C)C4(C)C)c2OC)cc(N(C)C)c1 [Compound 85]
> 10 | > 0.009 | COc1c(CN2O[C@@H](CN=C(N(C)C)N(C)C)[C@@H]([C@H](C)O)[C@H]2C(=O)N[C@H]2C[C@H]3C[C@@H]([C@@H]2C)C3(C)C)cccc1-c1cc(C(=O)NCCc2ccccc2)cc(N(C)C)c1 [Compound 86]
> 10 | > 0.009 | CNC(=O)c1cc(-c2cccc(CN3O[C@@H](CN)[C@@H]([C@H](C)OC(=O)N(C)C)[C@H]3C(=O)N[C@H]3C[C@H]4C[C@@H]([C@@H]3C)C4(C)C)c2OC)cc(N(C)C)c1 [Compound 87]
> 10 | > 0.009 | CNC(=O)c1cc(-c2cccc(CN3O[C@@H](CN)[C@@H]([C@H](C)OC(=O)NCCc4ccccc4)[C@H]3C(=O)N[C@H]3C[C@H]4C[C@@H]([C@@H]3C)C4(C)C)c2OC)cc(N(C)C)c1 [Compound 91]
> 10 | > 0.009 | CNC(=O)c1cc(-c2cccc(CN3O[C@@H](CN)[C@@H]([C@H](C)OC(=O)NCCN(C)C)[C@H]3C(=O)N[C@H]3C[C@H]4C[C@@H]([C@@H]3C)C4(C)C)c2OC)cc(N(C)C)c1 [Compound 92]

Ki (Bcl-xL) [µM] | Ki (Bcl-2) [µM] | Compound
> 10 | > 0.009 | CNC(=O)O[C@@H](C)[C@@H]1[C@H](CN)ON(Cc2cccc(-c3cc(C(=O)NC)cc(N(C)C)c3)c2OC)[C@@H]1C(=O)N[C@H]1C[C@H]2C[C@@H]([C@@H]1C)C2(C)C [Compound 93]
> 10 | 0.001 to 0.005 | CCNC[C@@H]1ON(Cc2cccc(-c3cc(C(=O)NC)cc(N(C)C)c3)c2OC)[C@H](C(=O)N[C@H]2C[C@H]3C[C@@H]([C@@H]2C)C3(C)C)[C@@H]1[C@H](C)O [Compound 94]
5 to 10 | 0.005 to 0.009 | CNC(=O)c1cc(-c2cccc(CN3O[C@@H](CNCC(C)C)[C@@H]([C@H](C)O)[C@H]3C(=O)N[C@H]3C[C@H]4C[C@@H]([C@@H]3C)C4(C)C)c2OC)cc(N(C)C)c1 [Compound 95]
5 to 10 | 0.005 to 0.009 | CNC(=O)c1cc(-c2cccc(CN3O[C@@H](CNCC4CC4)[C@@H]([C@H](C)O)[C@H]3C(=O)N[C@H]3C[C@H]4C[C@@H]([C@@H]3C)C4(C)C)c2OC)cc(N(C)C)c1 [Compound 96]
> 10 | > 0.009 | CNC(=O)c1cc(-c2cccc(CN3O[C@@H](CNC(C)C)[C@@H]([C@H](C)O)[C@H]3C(=O)N[C@H]3C[C@H]4C[C@@H]([C@@H]3C)C4(C)C)c2OC)cc(N(C)C)c1 [Compound 97]
5 to 10 | > 0.009 | CNC(=O)c1cc(-c2cccc(CN3O[C@@H](CN(CC(C)C)CC(C)C)[C@@H]([C@H](C)O)[C@H]3C(=O)N[C@H]3C[C@H]4C[C@@H]([C@@H]3C)C4(C)C)c2OC)cc(N(C)C)c1 [Compound 98]
> 10 | > 0.009 | CNC(=O)c1cc(-c2cccc(CN3O[C@@H](CN(C)C)[C@@H]([C@H](C)O)[C@H]3C(=O)N[C@H]3C[C@H]4C[C@@H]([C@@H]3C)C4(C)C)c2OC)cc(N(C)C)c1 [Compound 99]
1 to 5 | < 0.001 | C[C@@H]1[C@@H](NC(=O)[C@@H]2[C@H]([C@H](C)O)[C@H](CO)ON2Cc2cccc(-c3cc(C(=O)N[C@@H](Cc4ccccc4)CN(C)C)cc(N(C)C)c3)c2OCCN(C)C)C[C@H]2C[C@@H]1C2(C)C [Compound 100]
< 1 | < 0.001 | COc1c(CN2O[C@@H](CO)[C@@H]([C@H](C)O)[C@H]2C(=O)N[C@H]2C[C@H]3C[C@@H]([C@@H]2C)C3(C)C)cccc1-c1cc(C(=O)N[C@H](Cc2ccccc2)CN(C)C)cc(N(C)C)c1 [Compound 113]
< 1 | < 0.001 | COc1c(CN2O[C@@H](CNC(=O)CCC(=O)O)[C@@H]([C@H](C)O)[C@H]2C(=O)N[C@H]2C[C@H]3C[C@@H]([C@@H]2C)C3(C)C)cccc1-c1cc(C(=O)N[C@H](CN(C)C)CC(C)(C)C)cc(N(C)C)c1 [Compound 114]
< 1 | < 0.001 | COc1c(CN2O[C@@H](CNC(=O)CCN(C)C)[C@@H]([C@H](C)O)[C@H]2C(=O)N[C@H]2C[C@H]3C[C@@H]([C@@H]2C)C3(C)C)cccc1-c1cc(C(=O)N[C@H](CN(C)C)CC(C)(C)C)cc(N(C)C)c1 [Compound 115]
< 1 | < 0.001 | COc1c(CN2O[C@@H](CO)[C@@H]([C@H](C)O)[C@H]2C(=O)N[C@H]2C[C@H]3C[C@@H]([C@@H]2C)C3(C)C)cccc1-c1cc(C(=O)NCCc2ccccc2)cc(N(C)C)c1 [Compound 126]
< 1 | < 0.001 | COc1c(-c2cc(C(=O)N[C@@H](Cc3ccccc3)CN(C)C)cc(N(C)C)c2)ccc(F)c1CN1O[C@@H](CN)[C@@H]([C@H](C)O)[C@H]1C(=O)N[C@H]1C[C@H]2C[C@@H]([C@@H]1C)C2(C)C [Compound 127]
< 1 | < 0.001 | COc1c(CN2O[C@@H](CO)[C@@H]([C@H](C)O)[C@H]2C(=O)N[C@H]2C[C@H]3C[C@@H]([C@@H]2C)C3(C)C)cccc1-c1cc(C(=O)N[C@H](CN(C)C)[C@H](O)c2ccccc2)cc(N(C)C)c1 [Compound 136]
< 1 | < 0.001 | COc1c(-c2cc(C(=O)N[C@H](CN(C)C)[C@H](O)c3ccccc3)cc(N(C)C)c2)ccc(F)c1CN1O[C@@H](CO)[C@@H]([C@H](C)O)[C@H]1C(=O)N[C@H]1C[C@H]2C[C@@H]([C@@H]1C)C2(C)C [Compound 143]
< 1 | < 0.001 | COc1c(CN2O[C@@H](CO)[C@@H]([C@H](C)O)[C@H]2C(=O)N[C@H]2C[C@H]3C[C@@H]([C@@H]2C)C3(C)C)cccc1-c1cc(C(=O)N[C@H](CN(C)C)[C@@H](NS(C)(=O)=O)c2ccccc2)cc(N(C)C)c1 [Compound 144]
< 1 | < 0.001 | COc1c(-c2cc(C(=O)N[C@H](CN(C)C)[C@@H](NS(C)(=O)=O)c3ccccc3)cc(N(C)C)c2)ccc(F)c1CN1O[C@@H](CO)[C@@H]([C@H](C)O)[C@H]1C(=O)N[C@H]1C[C@H]2C[C@@H]([C@@H]1C)C2(C)C [Compound 151]
